Test results reported in patent US20180072988A1, “GENERATION OF FUNCTIONAL CELLS FROM STEM CELLS” (priority 2015, published 2018).
“Also recorded” adds a separate entry of the source.

Columns and labels:
iGNs = assay: Whole cell patch clamp of iGNs: GABA-evoked responses and spontaneous IPSCs; assay type: cell-based, human; conditions: 1 mM, 100 ms
Experimental: Whole cell patch clamp recordings were performed on iGNs and iENs with voltage or current clamp mode. Recording pipettes with resistances of 4-6 MΩ were filled with an internal solution containing (in mM): 120 K-gluconate, 9 KCl, 10 KOH, 3.48 MgCl2, 4 NaCl, 10 HEPES, 4 Na2ATP, 0.4 Na3GTP, 17.5 Sucrose, 0.5 EGTA with an osmolarity of 290 mOsm and pH 7.3. Neurons were bathed in the extracellular solution containing (in mM): 124 NaCl, 3 KCl, 1.3 NaH2PO4, 10 dextrose, 2 MgCl2, 2 CaCl2, 10 HEPES at pH 7.4. Bicuculline (20 μM, Tocris) and CNQX (50 μM, Tocris) were used to block inhibitory or excitatory synaptic responses, respectively. […] Recordings with serial resistance higher than 20 MO or leaking current more than 200 pA were not analyzed. Data were analyzed offline using the ClampFit (Molecular Devices) or MiniAnalysis (Synaptosoft). […] The reversal potential for ions was −49 mV in our recording system, calculated using the simplified Nernst equation: E(Cl^−)=−59*log(extracellular[Cl^−]/intracellular[Cl^−]),(T=25° C.). Spontaneous action potentials were recorded at I=0 mode. […]
For chemical GABA evoked IPSC recording, tip of glass pipettes filled with freshly made GABA (1 mM, Sigma) was put approximately 100 μm away from soma along dendrites of recorded neurons. […]

iGN expressing ChETA = assay type: cell-based, human
[1] = tested on: transplanted human iGNs in acute cortical slices; assay: Slice recording of sEPSCs from human iGNs transplanted into mouse cortex; assay type: cell-based; conditions: CNQX 50 μM; -70 mV voltage clamp
Experimental: P1 NSG pups were anesthetized on ice for 1-2 minutes before being secured with tape onto a prechilled ice block. Human iGNs were priorly labeled with RFP as described, and trypsinized to single cells at 8 dpt. Concentrated cell suspensions (˜2.5-5×10^4 cells/μl) were front loaded into a microliter syringe (26s gauge, Hamilton Company) and injected (200 nl, 250 nl/min) bilaterally to a depth of 0.2 mm near the centre of the anterior/posterior axis and 1 mm away from the midline.
After isofluorane anesthesia, brains were quickly cut out and 300-μm coronal slices were sectioned using vibrating microtome (VF-200 Microtome, Precisionary Instruments). Slices were incubated at 30° C. in artificial cerebrospinal fluid (ACSF) containing (in mM): 125 NaCl, 2.5 KCl, 1.25 NaH2PO4, 2 CaCl2, 1 MgCl2, 26 NaHCO3, and 10 glucose, saturated with 95% 02 and 5% CO2 at 30-32° C. for recovery for at least 1 hour. During recording, slices were kept in a recording chamber with continuous perfusion of ACSF. CNQX (50 μM, Tocris) was used to block sEPSC. Patch recordings were done by using IR-DIC visualization techniques with an Olympus BX51WI upright microscope with a ×60 water-immersion lens. Patch clamp recording method was same with that of recording in cultured cell.

mixed iENs/iGNs = assay: Spontaneous PSC recording from iGNs in mixed iENs/iGNs co-culture; assay type: cell-based, human; conditions: 56 dpt, -70 mV; after bicuculline
Experimental: (§1) Whole cell patch clamp recordings were performed on iGNs and iENs with voltage or current clamp mode. Recording pipettes with resistances of 4-6 MΩ were filled with an internal solution containing (in mM): 120 K-gluconate, 9 KCl, 10 KOH, 3.48 MgCl2, 4 NaCl, 10 HEPES, 4 Na2ATP, 0.4 Na3GTP, 17.5 Sucrose, 0.5 EGTA with an osmolarity of 290 mOsm and pH 7.3. Neurons were bathed in the extracellular solution containing (in mM): 124 NaCl, 3 KCl, 1.3 NaH2PO4, 10 dextrose, 2 MgCl2, 2 CaCl2, 10 HEPES at pH 7.4. Bicuculline (20 μM, Tocris) and CNQX (50 μM, Tocris) were used to block inhibitory or excitatory synaptic responses, respectively. Neurons were held at −70 mV except otherwise indicated or at required currents using an Axon MultiClamp 700B amplifier (Axon Instruments). Signal was sampled at 40 kHz and filtered at 2 kHz (Digidata 1440A, Molecular Devices). Recordings with serial resistance higher than 20 MO or leaking current more than 200 pA were not analyzed. Data were analyzed offline using the ClampFit (Molecular Devices) or MiniAnalysis (Synaptosoft). […] The reversal potential for ions was −49 mV in our recording system, calculated using the simplified Nernst equation: E(Cl^−)=−59*log(extracellular[Cl^−]/intracellular[Cl^−]),(T=25° C.). Spontaneous action potentials were recorded at I=0 mode. […]

iENs = assay: sEPSC recording from iENs; assay type: cell-based, human; conditions: CNQX 20 μM; 21 dpt
Experimental: as §1, with “Bicuculline (20 μM, Tocris) and CNQX (50 μM, Tocris) were used to block inhibitory or excitatory synaptic responses, respectively.” left out, “(Synaptosoft). Voltage clamp was used for recording I/V curve of Na/K current using a protocol of increasing holding potential 10 mV for each step from −80 mV.” for “(Synaptosoft).”

## NCCCC(=O)O [GABA, gamma-aminobutyric acid]
iGNs
  induction of IPSCs by exogenous application: triggered inhibitory postsynaptic currents

## TTX
iGN expressing ChETA
  light-evoked inward currents, block: could not block these light-evoked currents

## N#Cc1cc2[nH]c(=O)c(=O)[nH]c2cc1[N+](=O)[O-] [CNQX]
[1]
  spontaneous EPSCs (sEPSCs) in transplanted iGNs, block: abolished; also recorded: blocked
Mixed iENs/iGNs
  sEPSCs (fast-rise, fast-decay PSCs) in iGNs of mixed culture, block: completely abolished the remaining fast-rise, fast-decay PSCs; also recorded: blocked
iENs
  sEPSCs in iENs, block: completely abolished sEPSCs
